According to PubChem BioAssay AID210 (DTP/NCI, 2004):
Values joined by “and” are separate entries in the source; they are usually repeats but may differ in a detail not shown here. Identical values can stand only once. Inconclusive results and toxic doses are left out.

System: CD2F1 mice, ip Colon 26 adenocarcinoma, median survival T/C
Test: NCI In Vivo Anticancer Drug Screen. Data for tumor model Colon 26 Adenocarcinoma (intraperitoneal) in CD2F1 (CDF1) mice
Conditions: endpoint: median survival time, higher = longer survival
Procedure: The antitumor activity of compounds was measured in mice bearing transplantable tumors. Survival or tumor size were measured and the results are expressed as the measurement made in the treated group (T) divided by the measurement made in the vehicle treated control group (C). The tumor model used in this assay is Colon 26 Adenocarcinoma (intraperitoneal) in CD2F1 (CDF1) mice

[1] = dose: 10.0 mg/kg/injection, schedule: Q01DX009 (ip), vehicle: acid diluted with saline
[2] = dose: 40.0 mg/kg/injection, schedule: Q01DX009 (ip), vehicle: acid diluted with saline
[3] = dose: 12.5 mg/kg/injection, schedule: Q04DX003 (ip), vehicle: saline with Tween-80
[4] = dose: 25.0 mg/kg/injection, schedule: Q04DX003 (ip), vehicle: saline with Tween-80
[5] = dose: 50.0 mg/kg/injection, schedule: Q04DX003 (ip), vehicle: saline with Tween-80
[6] = dose: 100.0 mg/kg/injection, schedule: Q04DX003 (ip), vehicle: saline with Tween-80

`Nc1ncnc2c1ncn2C1OC(CO)C(O)C1O` (centres undefined) was tested. Which T/C (dose: 50.0 mg/kg/injection, schedule: Q04DX002 (ip), vehicle: suspension in saline) did it give?
The T/C was 101 % of control.

What about the T/C (dose: 64.0 mg/kg/injection, schedule: Q04DX002 (ip), vehicle: Klucel (hydroxypropylcellulose) (HPC)) of the same molecule?
Its T/C is 90 % of control.

And the T/C (dose: 100.0 mg/kg/injection, schedule: Q04DX002 (ip), vehicle: suspension in saline)?
The T/C was 113 % of control.

And the T/C (dose: 128.0 mg/kg/injection, schedule: Q04DX002 (ip), vehicle: Klucel (hydroxypropylcellulose) (HPC))?
Its T/C is 93 % of control.

And the T/C (dose: 200.0 mg/kg/injection, schedule: Q04DX002 (ip), vehicle: suspension in saline)?
Its T/C is 108 % of control.

And the T/C (dose: 256.0 mg/kg/injection, schedule: Q04DX002 (ip), vehicle: Klucel (hydroxypropylcellulose) (HPC))?
Its T/C is 91 % of control.

What about the T/C (dose: 400.0 mg/kg/injection, schedule: Q04DX002 (ip), vehicle: suspension in saline) of the same molecule?
Its T/C is 107 % of control.

What about the T/C (dose: 800.0 mg/kg/injection, schedule: Q04DX002 (ip), vehicle: suspension in saline) of the same molecule?
Its T/C is 122 % of control.

What about the T/C (dose: 1024.0 mg/kg/injection, schedule: Q04DX002 (ip), vehicle: Klucel (hydroxypropylcellulose) (HPC)) of the same molecule?
The T/C was 98 % of control.

With `O=c1[nH]cc(F)c(=O)[nH]1` as the molecule, how does the T/C (dose: 28.8 mg/kg/injection, schedule: Q04DX003 (sc), vehicle: other) read?
Its T/C is 120 % of control.

And the T/C (dose: 36.0 mg/kg/injection, schedule: Q04DX003 (ip), vehicle: saline)?
Its T/C is 175 % of control.

And the T/C (dose: 40.0 mg/kg/injection, schedule: Q04DX003 (ip), vehicle: saline)?
Its T/C is 186 % of control.

And the T/C (dose: 60.0 mg/kg/injection, schedule: Q04DX003 (ip), vehicle: saline)?
Its T/C is 164 % of control.

And the T/C (dose: 70.0 mg/kg/injection, schedule: Q07DX003 (ip), vehicle: saline)?
The T/C was 152 % of control.

And the T/C (dose: 80.0 mg/kg/injection, schedule: Q04DX003 (ip), vehicle: saline)?
The T/C was 95 % of control.

And the T/C (dose: 100.0 mg/kg/injection, schedule: Q04DX003 (ip), vehicle: saline)?
The T/C was 79 % of control.

What about the T/C (dose: 100.0 mg/kg/injection, schedule: Q07DX003 (ip), vehicle: saline) of the same molecule?
The T/C was 165 % of control.

What about the T/C (dose: 140.0 mg/kg/injection, schedule: Q07DX003 (ip), vehicle: saline) of the same molecule?
Its T/C is 150 % of control.

And the T/C (dose: 160.0 mg/kg/injection, schedule: Q04DX003 (ip), vehicle: saline)?
The T/C was 74 % of control.

`CN(C)CCNc1ccc(NCCN(C)C)c2c1C(=O)c1ccccc1C2=O` was tested. Which T/C (dose: 5.0 mg/kg/injection, schedule: Q01DX009 (ip), vehicle: acid diluted with saline) did it give?
Its T/C is 115 % of control and 119 % of control.

And the T/C [1]?
The T/C was 108 % of control and 123 % of control and 202 % of control.

And the T/C [2]?
Its T/C is 104 % of control and 105 % of control.

`CC1(CO)C(O)CCC2(C)C1CCC1CC3CC12CCC3(O)CO` (centres undefined) was tested. Which T/C (dose: 25.0 mg/kg/injection, schedule: Q01DX009 (ip), vehicle: saline with Tween-80) did it give?
Its T/C is 167 % of control.

And the T/C (dose: 50.0 mg/kg/injection, schedule: Q04DX003 (oral), vehicle: saline with Tween-80)?
The T/C was 105 % of control and 106 % of control and 113 % of control.

And the T/C (dose: 100.0 mg/kg/injection, schedule: Q04DX003 (oral), vehicle: saline with Tween-80)?
Its T/C is 101 % of control and 119 % of control and 100 % of control.

What about the T/C (dose: 600.0 mg/kg/injection, schedule: Q04DX003 (ip), vehicle: saline with Tween-80) of the same molecule?
Its T/C is 100 % of control.

And the T/C (dose: 1600.0 mg/kg/injection, schedule: Q04DX003 (oral), vehicle: saline with Tween-80)?
The T/C was 106 % of control.

`CCOC(=O)C1C2OC(=O)C(C(=O)C2CN(CCCl)CCCl)C1C1CC=C(CC2=CCC(C3C4C(=O)OC(C(CN(CCCl)CCCl)C4=O)C3C(=O)OCC)CC2)CC1` (centres undefined) was tested. Which T/C (dose: 100.0 mg/kg/injection, schedule: Q04DX003 (ip), vehicle: Klucel (hydroxypropylcellulose) (HPC)) did it give?
Its T/C is 216 % of control.

What about the T/C (dose: 200.0 mg/kg/injection, schedule: Q04DX003 (ip), vehicle: Klucel (hydroxypropylcellulose) (HPC)) of the same molecule?
Its T/C is 232 % of control.

Which T/C [1] does the source give for `CN(C)CCNc1ccc(O)c2c1C(=O)c1ccccc1C2=O` here?
The T/C was 121 % of control.

What about the T/C (dose: 20.0 mg/kg/injection, schedule: Q01DX009 (ip), vehicle: acid diluted with saline) of the same molecule?
Its T/C is 104 % of control and 115 % of control.

And the T/C [2]?
The T/C was 103 % of control.

What about the T/C (dose: 80.0 mg/kg/injection, schedule: Q01DX009 (ip), vehicle: acid diluted with saline) of the same molecule?
The T/C was 115 % of control and 120 % of control.

How did the T/C (dose: 45.0 mg/kg/injection, schedule: Q04DX002 (ip), vehicle: water) turn out when `C/C=C/C1=CC(=O)C(O)C1O` (centres undefined) was run?
Its T/C is 106 % of control.

And the T/C (dose: 90.0 mg/kg/injection, schedule: Q04DX002 (ip), vehicle: water)?
Its T/C is 99 % of control.

And the T/C (dose: 180.0 mg/kg/injection, schedule: Q04DX002 (ip), vehicle: water)?
Its T/C is 101 % of control.

What does the source list for `COc1cccc2c1C(=O)c1c(O)c3c(c(O)c1C2=O)C[C@@](O)(C(=O)CO)C[C@@H]3OC1CC(OC(C)=O)C(OC(C)=O)C(C)O1` (some centres undefined)?
T/C (dose: 58.0 mg/kg/injection, schedule: Q07DX002 (sc), vehicle: distilled water + Tween-80): 109 % of control; T/C (dose: 101.0 mg/kg/injection, schedule: Q07DX002 (sc), vehicle: distilled water + Tween-80): 120 % of control; T/C (dose: 300.0 mg/kg/injection, schedule: Q07DX002 (sc), vehicle: distilled water + Tween-80): 150 % of control

`O=C(O)CC(NC(=O)CP(=O)(O)O)C(=O)O` (centres undefined) was tested. Which T/C (dose: 108.0 mg/kg/injection, schedule: Q04DX003 (ip), vehicle: saline) did it give?
Its T/C is 119 % of control.

What about the T/C (dose: 180.0 mg/kg/injection, schedule: Q04DX003 (ip), vehicle: saline) of the same molecule?
The T/C was 115 % of control.

What about the T/C (dose: 180.0 mg/kg/injection, schedule: Q04DX003 (ip), vehicle: water) of the same molecule?
Its T/C is 161 % of control.

And the T/C (dose: 300.0 mg/kg/injection, schedule: Q04DX003 (ip), vehicle: water)?
The T/C was 106 % of control.

What about the T/C (dose: 833.0 mg/kg/injection, schedule: Q04DX003 (ip), vehicle: saline) of the same molecule?
The T/C was 187 % of control.

Which results are given for `C=CCNc1ccc(C)cc1`?
T/C [3]: 104 % of control; T/C [4]: 104 % of control; T/C [5]: 96 % of control; T/C [6]: 97 % of control

Which results are given for `O=[N+]([O-])/C=C\c1ccc2c(c1)OCO2`?
T/C (dose: 3.12 mg/kg/injection, schedule: Q04DX003 (ip), vehicle: Klucel (hydroxypropylcellulose) (HPC)): 87 % of control; T/C (dose: 6.25 mg/kg/injection, schedule: Q04DX003 (ip), vehicle: Klucel (hydroxypropylcellulose) (HPC)): 105 % of control; T/C (dose: 25.0 mg/kg/injection, schedule: Q04DX003 (ip), vehicle: Klucel (hydroxypropylcellulose) (HPC)): 90 % of control

With `CN(N=O)C(=O)N[C@@H](C=O)[C@@H](O)[C@H](O)[C@H](O)CO` as the molecule, how does the T/C (dose: 12.5 mg/kg/injection, schedule: Q04DX003 (ip), vehicle: other) read?
Its T/C is 113 % of control.

And the T/C (dose: 25.0 mg/kg/injection, schedule: Q04DX003 (ip), vehicle: other)?
The T/C was 110 % of control.

What about the T/C (dose: 50.0 mg/kg/injection, schedule: Q04DX003 (ip), vehicle: other) of the same molecule?
Its T/C is 118 % of control.

What about the T/C (dose: 100.0 mg/kg/injection, schedule: Q04DX003 (ip), vehicle: other) of the same molecule?
Its T/C is 124 % of control.

What about the T/C (dose: 200.0 mg/kg/injection, schedule: Q04DX003 (ip), vehicle: other) of the same molecule?
Its T/C is 123 % of control.

For `C[C@]12CCC(=O)C=C1CC[C@@H]1[C@@H]2[C@@H](O)C[C@@]2(C)[C@H]1CC[C@]2(O)C(=O)CO`, which T/C (dose: 40.0 mg/kg/injection, schedule: Q04DX003 (ip), vehicle: Klucel (hydroxypropylcellulose) (HPC)) is on record?
Its T/C is 102 % of control.

What about the T/C (dose: 80.0 mg/kg/injection, schedule: Q04DX003 (ip), vehicle: Klucel (hydroxypropylcellulose) (HPC)) of the same molecule?
Its T/C is 100 % of control.

What about the T/C (dose: 160.0 mg/kg/injection, schedule: Q04DX003 (ip), vehicle: Klucel (hydroxypropylcellulose) (HPC)) of the same molecule?
The T/C was 102 % of control.

And the T/C (dose: 320.0 mg/kg/injection, schedule: Q04DX003 (ip), vehicle: Klucel (hydroxypropylcellulose) (HPC))?
Its T/C is 102 % of control.

What about the T/C (dose: 640.0 mg/kg/injection, schedule: Q04DX003 (ip), vehicle: Klucel (hydroxypropylcellulose) (HPC)) of the same molecule?
Its T/C is 96 % of control.

`O=C([O][Hg][CH2]C1COC([CH2][Hg][O]C(=O)c2ccccc2)CO1)c1ccccc1` (centres undefined) was tested. Which T/C (dose: 37.5 mg/kg/injection, schedule: Q04DX003 (ip), vehicle: saline with Tween-80) did it give?
The T/C was 89 % of control.

And the T/C (dose: 75.0 mg/kg/injection, schedule: Q04DX003 (ip), vehicle: saline with Tween-80)?
The T/C was 94 % of control.

Which results are given for `Cc1ncc(CNC(=O)N(CCCl)N=O)c(N)n1`?
T/C (dose: 25.0 mg/kg/injection, schedule: Q04DX003 (oral), vehicle: saline): 360 % of control; T/C (dose: 40.0 mg/kg/injection, schedule: Q04DX003 (oral), vehicle: saline): 340 % of control; T/C (dose: 64.0 mg/kg/injection, schedule: Q04DX003 (oral), vehicle: saline): 95 % of control

Which results are given for `Cc1cc(C)c(-c2cc(O)c(C)cc2O)c(C)c1`?
T/C [3]: 107 % of control; T/C [4]: 109 % of control; T/C [5]: 106 % of control; T/C [6]: 112 % of control; T/C (dose: 200.0 mg/kg/injection, schedule: Q04DX003 (ip), vehicle: saline with Tween-80): 112 % of control

With `CC/C(=C(/CC)c1ccc(O)cc1)c1ccc(O)cc1` as the molecule, how does the T/C [4] read?
Its T/C is 91 % of control.

What about the T/C [5] of the same molecule?
Its T/C is 103 % of control.

And the T/C [6]?
The T/C was 89 % of control.
